Assays:
[1] = molecular target: T1, cloned human 5-HT1A receptors (Homo sapiens, UniProt P08908); experiment: 35S-GTPγS binding assay, 5-HT1A antagonist function; type: biochemical; details: reversal of 8-OHDPAT effect on 35S-GTPγS binding
T1 construct: expressed in transfected cells
T1 sequence (P08908 1-422): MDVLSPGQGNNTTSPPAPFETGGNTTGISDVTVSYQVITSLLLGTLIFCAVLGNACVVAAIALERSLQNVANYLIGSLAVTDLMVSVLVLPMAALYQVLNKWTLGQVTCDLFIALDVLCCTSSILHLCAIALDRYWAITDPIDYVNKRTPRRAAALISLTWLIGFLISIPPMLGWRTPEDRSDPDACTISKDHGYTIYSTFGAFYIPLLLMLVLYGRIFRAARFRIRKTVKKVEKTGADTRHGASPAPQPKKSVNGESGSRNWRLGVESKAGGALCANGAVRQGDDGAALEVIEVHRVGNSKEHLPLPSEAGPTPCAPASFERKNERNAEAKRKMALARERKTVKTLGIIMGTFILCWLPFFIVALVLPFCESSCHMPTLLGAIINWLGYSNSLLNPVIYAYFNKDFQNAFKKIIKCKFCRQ
Method: Antagonist activity at 5-HT1A receptors was established by using a ^35S-GTPγS binding assay similar to that used by Lazareno and Birdsall (Br. J. Pharmacol. 109: 1120, 1993), in which the test compound's ability to affect the binding of ^35S-GTPγS to membranes containing cloned human 5-HT1A receptors was determined. Agonists produce an increase in binding whereas antagonists produce no increase but rather reverse the effects of the standard agonist 8-OHDPAT. The test compound's maximum inhibitory effect is represented as the Imax, while its potency is defined by the IC50.

[2] = molecular target: T2, human 5-HT1A receptors (Homo sapiens, UniProt P08908); experiment: [3H] 8-OHDPAT displacement, 5-HT1A receptor affinity; type: binding
T2 construct: expressed in transfected cells; host or cells: CHO cells
T2 sequence (P08908 1-422): T1 sequence (P08908 1-422)
From the text: High affinity for the serotonin 5-HT1A receptor was established by testing the claimed compound's ability to displace [^3H] 8-OHDPAT (dipropylaminbtetralin) from the 5-HT1A serotonin receptor following a modification of the procedure of Hall et al., J. Neurochem. 44, 1685 (1985) which utilizes CHO cells stably transfected with human 5-HT1A receptors.

[3] = molecular target: T3, serotonin transporter (Rattus norvegicus, UniProt P31652); experiment: 3H-paroxetine displacement, serotonin transporter affinity; type: binding
T3 construct: displace ^3H-paroxetine from male rat frontal cortical membranes; from tissue; host or cells: male rat frontal cortex membranes
T3 sequence (P31652 whole entry): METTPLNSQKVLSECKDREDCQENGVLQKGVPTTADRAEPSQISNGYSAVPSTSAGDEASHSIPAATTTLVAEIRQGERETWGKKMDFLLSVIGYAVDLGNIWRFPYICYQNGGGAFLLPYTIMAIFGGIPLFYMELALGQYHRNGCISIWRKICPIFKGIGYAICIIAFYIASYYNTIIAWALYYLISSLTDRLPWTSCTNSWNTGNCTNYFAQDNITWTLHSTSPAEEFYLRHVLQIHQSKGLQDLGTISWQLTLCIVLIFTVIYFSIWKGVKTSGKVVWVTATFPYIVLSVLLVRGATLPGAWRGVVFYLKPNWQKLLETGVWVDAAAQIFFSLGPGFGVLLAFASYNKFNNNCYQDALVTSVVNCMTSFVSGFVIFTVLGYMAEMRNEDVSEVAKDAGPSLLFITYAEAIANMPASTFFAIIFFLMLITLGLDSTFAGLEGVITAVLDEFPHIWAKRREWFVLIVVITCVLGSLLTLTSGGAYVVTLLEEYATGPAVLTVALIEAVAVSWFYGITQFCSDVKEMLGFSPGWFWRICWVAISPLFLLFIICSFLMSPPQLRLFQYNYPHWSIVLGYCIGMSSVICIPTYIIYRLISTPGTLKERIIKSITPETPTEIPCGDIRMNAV

SMILES	melting point	5-HT1A Function Imax (maximum inhibitory effect) [1]	IC50 [1]	Ki [2]	Ki [3]
Cc1cc2c3c(ccc2[nH]1)OCC(CN1CC=C(c2c[nH]c4ccccc24)CC1)O3 (stereo not shown) [Example 1, 2-[(4-(1H-Indol-3-yl)-3,6-dihydropyridin-1(2H)-yl)methyl]-8-methyl-2,3-dihydro-7H-[1,4]dioxino[2,3-e]indole]	212 to 215 °C	100	16 nM	0.45 nM	3.44 nM
CCc1cc2c3c(ccc2[nH]1)OCC(CN1CC=C(c2c[nH]c4ccc(F)cc24)CC1)O3 (stereo not shown) [Example 5, 8-Ethyl-2-[(4-(5-fluoro-1H-indol-3-yl)-3,6-dihydropyridin-1(2H)-yl)methyl]2,3-dihydro-7H-[1,4]dioxino[2,3-e]indole]	–	98	265 nM	26.3 nM	10 nM
CCc1cc2c3c(ccc2[nH]1)OCC(CN1CC=C(c2c[nH]c4ccc(F)cc24)CC1)O3 (stereo not shown) (hydrate or solvate) [Example 5, 8-Ethyl-2-[(4-(5-fluoro-1H-indol-3-yl)-3,6-dihydropyridin-1(2H)-yl)methyl]2,3-dihydro-7H-[1,4]dioxino[2,3-e]indole]	81 to 82 °C	–	–	–	–
Fc1ccc2[nH]cc(C3=CCN(CC4COc5ccc6[nH]ccc6c5O4)CC3)c2c1 (stereo not shown) [Example 3, 2-{[4-(5-Fluoro-1H-indol-3-yl)-3,6-dihydropyridin-1(2H)-yl]methyl}-2,3-dihydro-7H-[1,4]dioxino[2,3-e]indole]	112 °C	100	11.3 nM	2.45 nM	1.23 nM
C1=C(c2c[nH]c3ccccc23)CCN(CC2COc3ccc4[nH]ccc4c3O2)C1 (stereo not shown) [Example 2, 2-[(4-(1H-Indol-3-yl)-3,6-dihydropyridin-1(2H)-yl)methyl]-2,3-dihydro-7H-[1,4]dioxino[2,3-e]indole]	126 °C	52	23 nM	1.55 nM	0.77 nM
CCc1cc2c3c(ccc2[nH]1)OCC(CN1CC=C(c2c[nH]c4ccccc24)CC1)O3 (stereo not shown) (hydrate or solvate) [Example 4, 8-Ethyl-2-[(4-(1H-indol-3-yl)-3,6-dihydropyridin-1(2H)-yl)methyl]-2,3-dihydro-7H-[1,4]dioxino[2,3-e]indole]	175 to 177 °C	–	–	–	–
CCc1cc2c3c(ccc2[nH]1)OCC(CN1CC=C(c2c[nH]c4ccccc24)CC1)O3 (stereo not shown) [Example 4, 8-Ethyl-2-[(4-(1H-indol-3-yl)-3,6-dihydropyridin-1(2H)-yl)methyl]-2,3-dihydro-7H-[1,4]dioxino[2,3-e]indole]	–	78	73 nM	4.56 nM	10 nM

— patent US6627639B2, “Uses for indoletetrahydropyridine derivatives of 2,3-dihydro-7H-[1,4]dioxino-[2,3-e]indole” (Wyeth, priority 2001, dated 2003)
